US7323447B2, “Hepatitis C virus inhibitors” (Bristol-Myers Squibb Company, priority 2005, dated 2008)

Target: T1, human neutrophil elastase (HNE) (Homo sapiens, UniProt P08246)
T1 construct: purchased Sigma or EMDbiosciences
T1 sequence (P08246 30-267): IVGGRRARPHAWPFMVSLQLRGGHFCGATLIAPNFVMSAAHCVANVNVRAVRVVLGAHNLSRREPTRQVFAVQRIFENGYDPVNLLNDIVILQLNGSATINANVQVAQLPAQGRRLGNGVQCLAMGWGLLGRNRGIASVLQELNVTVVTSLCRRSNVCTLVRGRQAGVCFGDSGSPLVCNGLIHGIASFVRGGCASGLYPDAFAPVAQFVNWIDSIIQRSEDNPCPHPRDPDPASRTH
Assay: Specificity assay, human neutrophil elastase
Assay type: biochemical
Conditions: read-out: HLE activity in the specificity assays (IC50)
Procedure: The specificities of compounds of the present disclosure were determined against a variety of serine proteases: human neutrophil elastase (HNE), porcine pancreatic elastase (PPE) and human pancreatic chymotrypsin and one cysteine protease: human liver cathepsin B. In all cases, a 96-well plate format protocol using colorimetric p-nitroaniline (pNA) substrate or fluorometric Amino-Methyl-Coumarin (AMC) substrate, specific for each enzyme was used as described previously (PCT Patent Application No. WO 00/09543) with some modifications. All enzymes were purchased from Sigma or EMDbiosciences while the substrates were from Bachem.
Each pNA assay included a 2 hours enzyme-inhibitor pre-incubation at room temperature followed by addition of substrate and hydrolysis to ˜15% conversion as measured on a Spectramax Pro microplate reader. The cathepsin B assay was initiated by adding substrate to a 10 min enzyme-inhibitor pre-incubation at room temperature, and the assay plate measured immediately using the Cytofluor Series 4000. Compound concentrations varied from 100 to 0.4 μM depending on their potency. […]
The percentage of inhibition was calculated using the formula: [1−((UVinh−UVblank)/(UVctl−UVblank))]×100 […]

Compound: C=C[C@@H]1C[C@]1(NC(=O)[C@@H]1C[C@@H](OC(=O)N2Cc3cccc(F)c3C2)CN1C(=O)[C@@H](OC(=O)NC(C)(C)C)C(C)(C)C)C(=O)NS(=O)(=O)C1CC1 [Example 56Compound 56]
- IC50: > 100 µM
